This passage reports IC50 results from patent US10617680B2 (CELGENE QUANTICEL RESEARCH, INC., priority 2017, dated 2020).

For this assay, the target named is CBP (Homo sapiens (Human), UniProt Q92793). Nature of the assay: In vitro CBP inhibition (AlphaScreen, biotinylated H4-tetraacetyl peptide). The assay is classed as binding. Conditions: AlphaScreen, Table 29; read-out: CBP IC50. The essentials:
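His-tagged CBP expressed in E. coli (50 nM final) incubated with biotinylated H4K5/8/12/16(Ac) peptide (20 nM final) in 50 mM HEPES pH 7.3, 10 mM NaCl, 0.25 mM TCEP, 0.1% BSA, 0.005% Brij-35, 0.4% DMSO, 20 min at room temp.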

Sequence of CBP (Q92793 1081-1197): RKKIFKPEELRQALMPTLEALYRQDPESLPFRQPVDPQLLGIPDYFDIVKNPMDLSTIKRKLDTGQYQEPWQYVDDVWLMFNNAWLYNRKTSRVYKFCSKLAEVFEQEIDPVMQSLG

The IC50 is the point on the concentration scale where inhibition reaches its midpoint. As to `Cn1cc(-c2cnn(Cc3ccccc3)c2)c(-c2cnn(C(F)F)c2)cc1=O` [Example 160, 5-(1-benzyl-1H-pyrazol-4-yl)-4-(1-(difluoromethyl)-1H-pyrazol-4-yl)-1-methylpyridin-2(1H)-one], the half-maximal inhibitory concentration (IC50) is below 0.5 µM.
As for `CC(c1ccccc1Cl)n1cc(-c2ccc(=O)n(C)c2)cn1` (stereo not drawn) [Example 19, 5-(1-(1-(2-chlorophenyl)ethyl)-1H-pyrazol-4-yl)-1-methyl-pyridin-2(1H)-one], the IC50 was below 0.5 µM.
Turning to `CCOc1ccc(-c2cc(=O)n(C)cc2-c2cnn(-c3ccccc3C(=O)O)c2)cn1` [Example 230, 2-[4-(6-Ethoxy-1′-methyl-6′-oxo-1′,6′-dihydro-[3,4′]bipyridinyl-3′-yl)-pyrazol-1-yl]-benzoic acid], the concentration for half-maximal inhibition (IC50) was below 0.5 µM.
With `CC(c1ccccc1)n1cc(-c2cn(C)c(=O)cc2Oc2ccccc2)cn1` (stereo not drawn) [Example 57, 1-methyl-4-phenoxy-5-(1-(1-phenylethyl)-1H-pyrazol-4-yl) pyridin-2(1H)-one], the concentration for half-maximal inhibition (IC50) lay within 0.5 to 5 µM.
In the case of `Cn1cc(-c2cnn(Cc3ccccc3)c2)c(-n2cccc2)cc1=O` [Example 68, 5-(1-benzyl-1H-pyrazol-4-yl)-1-methyl-4-(1H-pyrrol-1-yl) pyridi-2(1H)-one] it was below 0.5 µM; in that of `COc1ccc(C#N)c(-n2cc(-c3cn(C)c(=O)cc3-c3ccc(F)cc3)cn2)c1` [Example 263, 2-{4-[4-(4-Fluoro-phenyl)-1-methyl-6-oxo-1,6-dihydro-pyridin-3-yl]-pyrazol-1-yl}-4-methoxy-benzonitrile], below 0.5 µM.
On to `COc1cc(-c2cc(=O)n(C)cc2-c2cnn(-c3ccccc3Cl)c2)ccn1` [Example 317, 5-(1-(2-chlorophenyl)-1H-pyrazol-4-yl)-2′-methoxy-1-methyl-[4,4′-bipyridin]-2(1H)-one], for which the IC50 is below 0.5 µM.
With `Cc1cc(-c2cnn(-c3cc(Oc4ccccc4)ccc3C#N)c2)cn(C)c1=O` [Example 258, 2-[4-(1,5-Dimethyl-6-oxo-1,6-dihydro-pyridin-3-yl)-pyrazol-1-yl]-4-phenoxy-benzonitrile], the IC50 is below 0.5 µM.
Regarding `Cn1cc(-c2cnn(-c3ccccc3C#N)c2)c(C2CC2)cc1=O` [Example 207, 2-[4-(4-Cyclopropyl-1-methyl-6-oxo-1,6-dihydro-pyridin-3-yl)-pyrazol-1-yl]-benzonitrile], the IC50 was below 0.5 µM.
On to “N-{2-[5-(1-benzyl-1H-pyrazol-4- yl)-1-methyl-2-oxo-1,2-dihydro- pyridin-4-yl]-cyclo- pentyl}-acetamide [Example 88]”, for which the IC50 is below 0.5 µM.
In the case of `COc1ccc(-c2cc(=O)n(C)cc2-c2cnn(-c3ccccc3C#N)c2)cn1` [Example 238, 2-(4-(6-methoxy-1′-methyl-6′-oxo-1′,6′-dihydro-[3,4′-bipyridin]-3′-yl)-1H-pyrazol-1-yl)benzonitrile] it was below 0.5 µM; in that of `Cn1cc(-c2cnn(Cc3ccccc3)c2)c(-c2cnn(CC(N)=O)c2)cc1=O` [Example 158, 2-(4-(5-(1-benzyl-1H-pyrazol-4-yl)-1-methyl-2-oxo-1,2-dihydro-pyridin-4-yl)-1H-pyrazol-1-yl)acetamide], below 0.5 µM; in that of `COc1cc(-c2cc(=O)n(C)cc2-c2cnn(-c3ccccc3C#N)c2)ccn1` [Example 220, 2-[4-(2′-Methoxy-1-methyl-6-oxo-1,6-dihydro-[4,4′]bipyridinyl-3-yl)-pyrazol-1-yl]-benzonitrile], below 0.5 µM.
For `Cc1ccc(-c2cc(=O)n(C)cc2-c2cnn(-c3ccccc3C(=O)O)c2)cc1` [Example 224, 2-[4-(1-Methyl-6-oxo-4-p-tolyl-1,6-dihydro-pyridin-3-yl)-pyrazol-1-yl]-benzoic acid], the half-maximal inhibitory concentration (IC50) was below 0.5 µM.
Consider `COc1ccc(-c2cc(=O)n(C)cc2-c2cnn(-c3ccccc3C#N)c2)cc1OC` [Example 243, 2-(4-(4-(3,4-dimethoxyphenyl)-1-methyl-6-oxo-1,6-dihydropyridin-3-yl)-1H-pyrazol-1-yl)benzonitrile], for which the IC50 is below 0.5 µM.
`Cn1cc(-c2cn[nH]c2)c(-c2ccccc2)cc1=O` [Example 133, 1-methyl-4-phenyl-5-(1H-pyrazol-4-yl)pyridin-2(1H)-one]: the concentration for half-maximal inhibition (IC50) was below 0.5 µM.
Then `CCOc1cc(=O)n(C)cc1-c1cnn(-c2cc(OC)ccc2C(=O)O)c1` [Example 247, 2-[4-(4-Ethoxy-1-methyl-6-oxo-1,6-dihydro-pyridin-3-yl)-pyrazol-1-yl]-4-methoxy-benzoic acid], with below 0.5 µM; and `COc1ccc(-c2cc(=O)n(C)cc2-c2cnn(C(C)c3ccccc3)c2)cn1` (stereo not drawn) [Example 308, 6-methoxy-1′-methyl-5′-(1-(1-phenylethyl)-1H-pyrazol-4-yl)-[3,4′-bipyridin]-2′(1′H)-one], with below 0.5 µM; and `Cn1cc(-c2cnn(-c3cccc(C4CC4)c3C#N)c2)c(-c2ccn(CC3CC3)c(=O)c2)cc1=O` [Example 381, 2-cyclopropyl-6-[4-[4-[1-(cyclopropylmethyl)-2-oxo-4-pyridyl]-1-methyl-6-oxo-3-pyridyl]pyrazol-1-yl]benzonitrile], with below 0.5 µM.
Take `COc1ccc(-c2cc(=O)n(C)cc2-c2cnn(-c3cc(C#N)ccc3OC)c2)cn1` [Example 306, 4-Methoxy-3-[4-(6-methoxy-1′-methyl-6′-oxo-1′,6′-dihydro-[3,4′]bipyridinyl-3′-yl)-pyrazol-1-yl]-benzonitrile]: the 50% inhibitory concentration (IC50) is below 0.5 µM.
Consider `CCOc1ccc(-c2cc(=O)n(C)cc2-c2cnn(-c3cccc(C4CC4)c3C#N)c2)cn1` [Example 384, 2-cyclopropyl-6-(4-(6-ethoxy-1′-methyl-6′-oxo-1′,6′-dihydro-[3,4′-bipyridin]-3′-yl)-1H-pyrazol-1-yl)benzonitrile], for which the half-maximal inhibitory concentration (IC50) was below 0.5 µM.
In the case of `CN(C)CCCOc1ccc(-c2cc(=O)n(C)cc2-c2cnn(-c3ccccc3C#N)c2)cn1` [Example 355, 2-(4-(6-(3-(dimethylamino)propoxy)-1′-methyl-6′-oxo-1′,6′-dihydro-[3,4′-bipyridin]-3′-yl)-1H-pyrazol-1-yl)benzonitrile] it was below 0.5 µM; in that of `Cn1cc(-c2cnn3c2CCC3)c(-c2ccccc2)cc1=O` [Example 162, 5-(5,6-dihydro-4H-pyrrolo[1,2-b]pyrazol-3-yl)-1-methyl-4-phenylpyridin-2(1H)-one], below 0.5 µM; in that of `CN(C)c1ncc(-c2cc(=O)n(C)cc2-c2cnn(-c3cccc(Cl)c3C#N)c2)cn1` [Example 328, 2-chloro-6-(4-(4-(2-(dimethylamino)pyrimidin-5-yl)-1-methyl-6-oxo-1,6-dihydropyridin-3-yl)-1H-pyrazol-1-yl)benzonitrile], below 0.5 µM.
`CCc1ccc(-c2cc(=O)n(C)cc2-c2cnn(-c3cccc(Cl)c3C#N)c2)cn1` [Example 371, 2-chloro-6-(4-(6-ethyl-1′-methyl-6′-oxo-1′,6′-dihydro-[3,4′-bipyridin]-3′-yl)-1H-pyrazol-1-yl)benzonitrile]: the IC50 is below 0.5 µM.
Turning to `CC(c1ccccc1)n1cc(-c2cn(C)c(=O)cc2OC2CCCC2)cn1` (stereo not drawn) [Example 51, 4-(cyclopentyloxy)-1-methyl-5-(1-(1-phenylethyl)-1H-pyrazol-4-yl) pyridin-2(1H)-one], the IC50 is below 0.5 µM.
As for `Cn1cc(-c2cnn(-c3cccc(F)c3C#N)c2)c(-c2ccc(NC3CCCC3)nc2)cc1=O` [Example 343, 2-(4-(6-(cyclopentylamino)-1′-methyl-6′-oxo-1′,6′-dihydro-[3,4′-bipyridin]-3′-yl)-1H-pyrazol-1-yl)-6-fluorobenzonitrile], the concentration for half-maximal inhibition (IC50) is below 0.5 µM.
In the case of `Cn1cc(-c2cnn(-c3cccc(Cl)c3C#N)c2)c(-c2ccc(NC3CCCC3)nc2)cc1=O` [Example 340, 2-chloro-6-(4-(6-(cyclopentylamino)-1′-methyl-6′-oxo-1′,6′-dihydro-[3,4′-bipyridin]-3′-yl)-1H-pyrazol-1-yl)benzonitrile] it was below 0.5 µM; in that of `CC(c1ccccc1)n1cc(-c2cn(C)c(=O)cc2F)cn1` (stereo not drawn) [Example 21, 4-fluoro-1-methyl-5-(1-(1-phenylethyl)-1H-pyrazol-4-yl) pyridin-2(1H)-one], 0.5 to 5 µM.
In the case of `COc1cc(=O)n(C)cc1-c1cnn(C(C)c2ccccc2)c1` (stereo not drawn) [Example 175, 4-methoxy-1-methyl-5-(1-(1-phenylethyl)-1H-pyrazol-4-yl) pyridin-2(1H)-one] it was below 0.5 µM; in that of `Cn1cc(-c2cnn(CC3CC3(F)F)c2)c(-c2ccccc2)cc1=O` (stereo not drawn) [Example 190, 5-[1-(2,2-Difluoro-cyclopropylmethyl)-1H-pyrazol-4-yl]-1-methyl-4-phenyl-1H-pyridin-2-one], below 0.5 µM.
Then `COCCNc1ncc(-c2cc(=O)n(C)cc2-c2cnn(C(C)c3ccccc3)c2)cn1` (stereo not drawn) [Example 312, 4-(2-((2-methoxyethyl)amino)pyrimidin-5-yl)-1-methyl-5-(1-(1-phenylethyl)-1H-pyrazol-4-yl)pyridin-2(1H)-one], with below 0.5 µM.
Consider `Cn1cc(-c2cnn(Cc3ccccc3)c2)c(-n2ccc(C(=O)O)c2)cc1=O` [Example 79, 1-(5-(1-benzyl-1H-pyrazol-4-yl)-1-methyl-2-oxo-1,2-dihydropyridin-4-yl)-1H-pyrrole-3-carboxylic acid], for which the IC50 is below 0.5 µM.
Take `CNc1ncc(-c2cc(=O)n(C)cc2-c2cnn(C(C)c3ccccc3)c2)cn1` (stereo not drawn) [Example 309, 1-methyl-4-(2-(methylamino)pyrimidin-5-yl)-5-(1-(1-phenylethyl)-1H-pyrazol-4-yl)pyridin-2(1H)-one]: the IC50 is below 0.5 µM.
Turning to `Cn1cc(-c2cnn(-c3cccc(F)c3C#N)c2)c(-c2ccc(C3CCCC3)nc2)cc1=O` [Example 378, 2-(4-(6-cyclopentyl-1′-methyl-6′-oxo-1′,6′-dihydro-[3,4′-bipyridin]-3′-yl)-1H-pyrazol-1-yl)-6-fluorobenzonitrile], the half-inhibitory concentration (IC50) is below 0.5 µM.
As to `CCNc1ccc(-c2cc(=O)n(C)cc2-c2cnn(-c3cccc(Cl)c3C#N)c2)cn1` [Example 342, 2-chloro-6-(4-(6-(ethylamino)-1′-methyl-6′-oxo-1′,6′-dihydro-[3,4′-bipyridin]-3′-yl)-1H-pyrazol-1-yl)benzonitrile], the IC50 is below 0.5 µM.
